Results taken from US20260297081A1, “COMPOUNDS AND METHODS OF TREATING CANCERS” (Cullgen Inc., priority 2023, published 2026).

Target: CDK4 (Homo sapiens, UniProt P11802+Q16531)
Test: CDK4 percentage degradation in Calu-1 cells (Table 6)
Assay type: cell-based
Design: Cells that express cyclin D1-3 and CDK4/6 proteins were treated with heterobifunctional compounds; endogenous in cells; host or cells: Calu-1
Settings: 16 hours; for inhibition at 0.04 µM: 40 nM; for inhibition at 0.2 µM: 200 nM
Protocol: Calu-(cells were treated with heterobifunctional compounds at 40 nM or 200 nM for 16 hours A: protein percentage degradation […]; B: protein percentage degradation <80%, and ≥50%; C: protein percentage degradation <50%, and ≥30%; D; protein percentage degradation […]; -, data not available.
Calu-1, T47D, MCF7, HCC1428 and other cells were cultured at 37° C. with 5% CO2 in RPMI 1640 or DMEM medium supplemented with 10% fetal bovine serum. Cells were authenticated using the short tandem repeat (STR) assays. Mycoplasma test results were negative. For palbo-resistant cell model, T47D cells were cultured long-term to resistance in the presence of 1 μM Palbociclib. Cells were deemed resistant when growing in the presence of Palbo at the same rate as parental cells.
Cultured cells were washed with cold PBS once and lysed in cold RIPA buffer supplemented with protease inhibitors and phosphatase inhibitors (Beyotime Biotechnology). The solutions were then incubated at 4 ? for 30 min with gentle agitation to fully lysed cells. Cell lysates were centrifuged at 13,000 rpm for 10 min at 4 ? and pellets were discarded. Total protein concentrations in the lysates were determined following BCA assays (Beyotime Biotechnology). Cell lysates were mixed with Laemmli loading buffer and heated at 99° C. for 5 min. Proteins were resolved on SDS-PAGE and visualized using Western ECL Substrate kits on a ChemiDoc MP Imaging system (Bio-Rad). Protein bands were quantitated using the Image Lab software provided by Bio-Rad.

CDK4, sequence (P11802 2-303 limits assumed): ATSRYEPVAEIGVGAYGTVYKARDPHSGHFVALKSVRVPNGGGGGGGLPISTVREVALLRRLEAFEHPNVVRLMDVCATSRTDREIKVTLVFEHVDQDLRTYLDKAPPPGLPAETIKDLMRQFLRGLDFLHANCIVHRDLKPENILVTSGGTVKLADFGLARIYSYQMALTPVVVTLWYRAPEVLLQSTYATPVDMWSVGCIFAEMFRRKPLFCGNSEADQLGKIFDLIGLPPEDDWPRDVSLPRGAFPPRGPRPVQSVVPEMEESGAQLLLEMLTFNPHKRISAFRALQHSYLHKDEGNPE
CDK4, sequence (P24385 whole entry partner): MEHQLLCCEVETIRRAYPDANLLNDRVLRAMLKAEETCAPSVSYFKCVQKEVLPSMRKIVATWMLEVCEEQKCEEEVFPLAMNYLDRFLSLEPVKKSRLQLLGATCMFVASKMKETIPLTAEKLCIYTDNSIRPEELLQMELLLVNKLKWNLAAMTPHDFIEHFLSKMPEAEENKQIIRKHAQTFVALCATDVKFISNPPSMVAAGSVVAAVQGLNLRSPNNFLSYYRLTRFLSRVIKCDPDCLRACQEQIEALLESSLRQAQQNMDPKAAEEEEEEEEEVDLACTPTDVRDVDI
CDK4, sequence (Q16531 2-1140 limits assumed): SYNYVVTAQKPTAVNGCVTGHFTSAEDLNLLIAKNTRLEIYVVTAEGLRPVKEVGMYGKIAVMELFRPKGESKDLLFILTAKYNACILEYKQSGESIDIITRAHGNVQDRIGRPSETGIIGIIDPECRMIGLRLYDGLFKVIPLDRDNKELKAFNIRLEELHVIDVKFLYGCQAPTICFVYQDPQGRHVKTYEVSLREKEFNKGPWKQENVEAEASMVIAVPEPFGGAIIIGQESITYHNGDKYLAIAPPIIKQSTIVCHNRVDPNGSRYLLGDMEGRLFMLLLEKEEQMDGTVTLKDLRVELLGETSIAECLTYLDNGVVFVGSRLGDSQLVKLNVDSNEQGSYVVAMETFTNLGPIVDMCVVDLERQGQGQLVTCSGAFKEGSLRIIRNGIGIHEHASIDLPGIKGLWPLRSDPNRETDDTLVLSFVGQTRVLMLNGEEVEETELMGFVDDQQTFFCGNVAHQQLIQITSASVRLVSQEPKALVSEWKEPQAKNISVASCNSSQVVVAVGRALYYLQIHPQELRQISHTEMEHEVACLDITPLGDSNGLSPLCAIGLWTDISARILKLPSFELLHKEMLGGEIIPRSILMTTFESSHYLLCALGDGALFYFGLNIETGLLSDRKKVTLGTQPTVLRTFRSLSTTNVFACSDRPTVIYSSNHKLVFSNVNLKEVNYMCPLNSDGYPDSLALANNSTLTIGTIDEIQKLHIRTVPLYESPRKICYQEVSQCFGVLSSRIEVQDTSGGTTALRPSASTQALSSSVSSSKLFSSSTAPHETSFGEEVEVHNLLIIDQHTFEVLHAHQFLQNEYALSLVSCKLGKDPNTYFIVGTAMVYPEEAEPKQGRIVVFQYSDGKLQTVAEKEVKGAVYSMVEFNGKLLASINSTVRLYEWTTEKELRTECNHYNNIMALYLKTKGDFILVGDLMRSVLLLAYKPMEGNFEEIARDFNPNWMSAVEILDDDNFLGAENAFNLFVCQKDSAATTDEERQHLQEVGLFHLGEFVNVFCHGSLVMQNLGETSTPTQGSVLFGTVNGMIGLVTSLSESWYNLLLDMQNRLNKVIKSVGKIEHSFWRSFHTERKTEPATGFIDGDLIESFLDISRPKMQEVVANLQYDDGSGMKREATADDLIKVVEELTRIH

| Structure (SMILES) | inhibition at 0.04 µM [%] | inhibition at 0.2 µM [%] |
| --- | --- | --- |
| CNc1ccc(C(=O)Nc2ccc(N(C)C)nn2)c(N2CCC(CCNC(=O)CN3CCN(c4ccc(Nc5ncc6c(C)c(C(C)=O)c(=O)n(C7CCCC7)c6n5)nc4)CC3)CC2)n1 [CPD-42, 2-(4-(2-(2-(4-(6-((6-Acetyl-8-cyclopentyl-5-methyl-7-oxo-7,8-dihydropyrido[2,3-d]pyrimidin-2-yl)amino)pyridin-3-yl)piperazin-1-yl)acetamido)ethyl)piperidin-1-yl)-N-(6-(dimethylamino)pyridazin-3-yl)-6-(methylamino)nicotinamide] | < 30 | < 30 |
| CNc1ccc(C(=O)Nc2ccc(N(C)C)nn2)c(N[C@H]2CC[C@H](CNC(=O)CN3CCN(c4ccc(Nc5ncc6c(C)c(C(C)=O)c(=O)n(C7CCCC7)c6n5)nc4)CC3)CC2)n1 [CPD-43, 2-((trans-4-((2-(4-(6-((6-Acetyl-8-cyclopentyl-5-methyl-7-oxo-7,8-dihydropyrido[2,3-d]pyrimidin-2-yl)amino)pyridin-3-yl)piperazin-1-yl)acetamido)methyl)cyclohexyl)amino)-N-(6-(dimethylamino)pyridazin-3-yl)-6-(methylamino)nicotinamide] | < 30 | 50 to 80 |
| CC(=O)c1c(C)c2cnc(Nc3ccc(N4CCN(CC(=O)NCCCCCNc5nc(C6CC6)ccc5C(=O)Nc5ccc(C)c(C6CC6)n5)CC4)cn3)nc2n(C2CCCC2)c1=O [CPD-44, 2-((5-(2-(4-(6-((6-Acetyl-8-cyclopentyl-5-methyl-7-oxo-7,8-dihydropyrido[2,3-d]pyrimidin-2-yl)amino)pyridin-3-yl)piperazin-1-yl)acetamido)pentyl)amino)-6-cyclopropyl-N-(6-cyclopropyl-5-methylpyridin-2-yl)nicotinamide] | < 30 | 30 to 50 |
| CC(=O)c1c(C)c2cnc(Nc3ccc(N4CCN(CC(=O)NCCC5CC(Nc6nc(C7CC7)ccc6C(=O)Nc6ccc(C)c(C7CC7)n6)C5)CC4)cn3)nc2n(C2CCCC2)c1=O (centres unmarked) [CPD-45, 2-((3-(2-(2-(4-(6-((6-Acetyl-8-cyclopentyl-5-methyl-7-oxo-7,8-dihydropyrido[2,3-d]pyrimidin-2-yl)amino)pyridin-3-yl)piperazin-1-yl)acetamido)ethyl)cyclobutyl)amino)-6-cyclopropyl-N-(6-cyclopropyl-5-methylpyridin-2-yl)nicotinamide] | < 30 | < 30 |
| CNc1ccc(C(=O)Nc2ccc(N(C)C)cc2)c(NCCCCCNC(=O)CN2CCN(c3ccc(Nc4ncc5c(C)c(C(C)=O)c(=O)n(C6CCCC6)c5n4)nc3)CC2)n1 [CPD-46, 2-((5-(2-(4-(6-((6-Acetyl-8-cyclopentyl-5-methyl-7-oxo-7,8-dihydropyrido[2,3-d]pyrimidin-2-yl)amino)pyridin-3-yl)piperazin-1-yl)acetamido)pentyl)amino)-N-(4-(dimethylamino)phenyl)-6-(methylamino)nicotinamide] | < 30 | < 30 |
| CNc1ccc(C(=O)Nc2ccc(N(C)C)cn2)c(NCCCCCNC(=O)CN2CCN(c3ccc(Nc4ncc5c(C)c(C(C)=O)c(=O)n(C6CCCC6)c5n4)nc3)CC2)n1 [CPD-47, 2-((5-(2-(4-(6-((6-Acetyl-8-cyclopentyl-5-methyl-7-oxo-7,8-dihydropyrido[2,3-d]pyrimidin-2-yl)amino)pyridin-3-yl)piperazin-1-yl)acetamido)pentyl)amino)-N-(5-(dimethylamino)pyridin-2-yl)-6-(methylamino)nicotinamide] | < 30 | 50 to 80 |
| CNc1ccc(C(=O)NC2CCC(N(C)C)CC2)c(NCCCCCNC(=O)CN2CCN(c3ccc(Nc4ncc5c(C)c(C(C)=O)c(=O)n(C6CCCC6)c5n4)nc3)CC2)n1 (centres unmarked) [CPD-48, 2-((5-(2-(4-(6-((6-Acetyl-8-cyclopentyl-5-methyl-7-oxo-7,8-dihydropyrido[2,3-d]pyrimidin-2-yl)amino)pyridin-3-yl)piperazin-1-yl)acetamido)pentyl)amino)-N-(4-(dimethylamino)cyclohexyl)-6-(methylamino)nicotinamide] | < 30 | < 30 |
| CNc1ccc(C(=O)Nc2ccn(C)n2)c(NCCCCCNC(=O)CN2CCN(c3ccc(Nc4ncc5c(C)c(C(C)=O)c(=O)n(C6CCCC6)c5n4)nc3)CC2)n1 [CPD-49, 2-((5-(2-(4-(6-((6-Acetyl-8-cyclopentyl-5-methyl-7-oxo-7,8-dihydropyrido[2,3-d]pyrimidin-2-yl)amino)pyridin-3-yl)piperazin-1-yl)acetamido)pentyl)amino)-N-(1-methyl-1H-pyrazol-3-yl)-6-(methylamino)nicotinamide] | 50 to 80 | 50 to 80 |
| CNc1ccc(C(=O)Nc2cc(C)cc(C3CC3)n2)c(NCCCCCNC(=O)CN2CCN(c3ccc(Nc4ncc5c(C)c(C(C)=O)c(=O)n(C6CCCC6)c5n4)nc3)CC2)n1 [CPD-53, 2-((5-(2-(4-(6-((6-Acetyl-8-cyclopentyl-5-methyl-7-oxo-7,8-dihydropyrido[2,3-d]pyrimidin-2-yl)amino)pyridin-3-yl)piperazin-1-yl)acetamido)pentyl)amino)-N-(6-cyclopropyl-4-methylpyridin-2-yl)-6-(methylamino)nicotinamide] | 50 to 80 | 50 to 80 |

Next, values leading:

| inhibition at 0.04 µM [%] | inhibition at 0.2 µM [%] | Structure (SMILES) |
| --- | --- | --- |
| < 30 | < 30 | CNc1ccc(C(=O)NC2CCC(N(C)C)C2)c(NCCCCCNC(=O)CN2CCN(c3ccc(Nc4ncc5c(C)c(C(C)=O)c(=O)n(C6CCCC6)c5n4)nc3)CC2)n1 (centres unmarked) [CPD-55, 2-((5-(2-(4-(6-((6-Acetyl-8-cyclopentyl-5-methyl-7-oxo-7,8-dihydropyrido[2,3-d]pyrimidin-2-yl)amino)pyridin-3-yl)piperazin-1-yl)acetamido)pentyl)amino)-N-(3-(dimethylamino)cyclopentyl)-6-(methylamino)nicotinamide] |
| 50 to 80 | 50 to 80 | CNc1ccc(C(=O)Nc2nc(C3CC3)c(C)s2)c(NCCCCCNC(=O)CN2CCN(c3ccc(Nc4ncc5c(C)c(C(C)=O)c(=O)n(C6CCCC6)c5n4)nc3)CC2)n1 [CPD-56, 2-((5-(2-(4-(6-((6-Acetyl-8-cyclopentyl-5-methyl-7-oxo-7,8-dihydropyrido[2,3-d]pyrimidin-2-yl)amino)pyridin-3-yl)piperazin-1-yl)acetamido)pentyl)amino)-N-(4-cyclopropyl-5-methylthiazol-2-yl)-6-(methylamino)nicotinamide] |
| 30 to 50 | 50 to 80 | CNc1ccc(C(=O)Nc2ccc(N(C)C)nc2)c(NCCCCCNC(=O)CN2CCN(c3ccc(Nc4ncc5c(C)c(C(C)=O)c(=O)n(C6CCCC6)c5n4)nc3)CC2)n1 [CPD-58, 2-((5-(2-(4-(6-((6-Acetyl-8-cyclopentyl-5-methyl-7-oxo-7,8-dihydropyrido[2,3-d]pyrimidin-2-yl)amino)pyridin-3-yl)piperazin-1-yl)acetamido)pentyl)amino)-N-(6-(dimethylamino)pyridin-3-yl)-6-(methylamino)nicotinamide] |
| 50 to 80 | 50 to 80 | CC(=O)c1c(C)c2cnc(Nc3ccc(N4CCN(CC(=O)NCCCCCNc5nc(NC6CCC6)ccc5C(=O)Nc5ccc(N(C)C)nn5)CC4)cn3)nc2n(C2CCCC2)c1=O [CPD-59, 2-((5-(2-(4-(6-((6-Acetyl-8-cyclopentyl-5-methyl-7-oxo-7,8-dihydropyrido[2,3-d]pyrimidin-2-yl)amino)pyridin-3-yl)piperazin-1-yl)acetamido)pentyl)amino)-6-(cyclobutylamino)-N-(6-(dimethylamino)pyridazin-3-yl)nicotinamide] |
| 50 to 80 | 50 to 80 | CC(=O)c1c(C)c2cnc(Nc3ccc(N4CCN(CC(=O)NC(C)CCCCNc5nc(C6CC6)ccc5C(=O)Nc5ccc(C)c(C6CC6)n5)CC4)cn3)nc2n(C2CCCC2)c1=O (centres unmarked) [CPD-60, 2-((5-(2-(4-(6-((6-Acetyl-8-cyclopentyl-5-methyl-7-oxo-7,8-dihydropyrido[2,3-d]pyrimidin-2-yl)amino)pyridin-3-yl)piperazin-1-yl)acetamido)hexyl)amino)-6-cyclopropyl-N-(6-cyclopropyl-5-methylpyridin-2-yl)nicotinamide] |
| < 30 | < 30 | CNc1ccc(C(=O)Nc2nc(C3CC3)ccc2C)c(NCCCCCNC(=O)CN2CCN(c3ccc(Nc4ncc5c(C)c(C(C)=O)c(=O)n(C6CCCC6)c5n4)nc3)CC2)n1 [CPD-61, 2-((5-(2-(4-(6-((6-Acetyl-8-cyclopentyl-5-methyl-7-oxo-7,8-dihydropyrido[2,3-d]pyrimidin-2-yl)amino)pyridin-3-yl)piperazin-1-yl)acetamido)pentyl)amino)-N-(6-cyclopropyl-3-methylpyridin-2-yl)-6-(methylamino)nicotinamide] |
| < 30 | < 30 | CNc1ccc(C(=O)NC2CC(N(C)C)C2)c(NCCCCCNC(=O)CN2CCN(c3ccc(Nc4ncc5c(C)c(C(C)=O)c(=O)n(C6CCCC6)c5n4)nc3)CC2)n1 (centres unmarked) [CPD-64, 2-((5-(2-(4-(6-((6-Acetyl-8-cyclopentyl-5-methyl-7-oxo-7,8-dihydropyrido[2,3-d]pyrimidin-2-yl)amino)pyridin-3-yl)piperazin-1-yl)acetamido)pentyl)amino)-N-(3-(dimethylamino)cyclobutyl)-6-(methylamino)nicotinamide] |
